From US8202857B2, “1,3-oxazepan-2-one and 1,3-diazepan-2-one inhibitors of 11β-hydroxysteroid dehydrogenase 1” (Vitae Pharmaceuticals, Inc., priority 2008, dated 2012)

Biological target: T1, human 11β-HSD1 (Homo sapiens, UniProt P28845)
T1 construct: expressed in transfected cells; host or cells: CHO cells (microsomes)
Experiment: Inhibition of a microsomal preparation of 11β-HSD1 (SPA), Biological Test Example 1
Assay type: biochemical
Details: microsomes from CHO cells overexpressing human 11β-HSD1; for IC50: read-out: IC50 Range^a; for inhibition at 0.1 µM: read-out: Average % inhibition at 100 nM, 100 nM; for Average % inhibition at 100 nM: 0.1 µM
Description: All reactions were carried out at rt in 96 well clear flexible PET Microbeta plates (PerkinElmer). […] After a 10 minute pre-incubation, 50 μL of enzyme solution containing microsomes isolated from CHO cells overexpressing human 11β-HSD1 (10-20 μg/ml of total protein) was added, and the plates were incubated for 90 minutes at rt. The reaction was stopped by adding 50 μl of the SPA beads suspension containing 10 μM 18β-glycyrrhetinic acid, 5 mg/ml protein A coated YSi SPA beads (GE Healthcare) and 3.3 μg/ml of anti-cortisol antibody (East Coast Biologics) in Superblock buffer (Bio-Rad). The plates were shaken for 120 minutes at rt, and the SPA signal corresponding to [^3H]cortisol was measured on a Microbeta plate reader.

T1 sequence (P28845 whole entry): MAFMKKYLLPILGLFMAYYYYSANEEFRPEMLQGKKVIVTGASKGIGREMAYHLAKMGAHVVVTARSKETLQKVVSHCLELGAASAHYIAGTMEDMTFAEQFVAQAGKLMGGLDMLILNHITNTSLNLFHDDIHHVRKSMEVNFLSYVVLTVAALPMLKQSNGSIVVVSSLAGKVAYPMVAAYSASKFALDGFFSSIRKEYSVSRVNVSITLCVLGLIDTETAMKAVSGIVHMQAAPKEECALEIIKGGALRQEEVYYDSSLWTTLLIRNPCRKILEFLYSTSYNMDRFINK

SMILES | IC50 | inhibition at 0.1 µM | Average % inhibition at 100 nM
C=CC[C@]1(c2ccccc2)CCCN([C@@H](C)c2ccc(Br)cc2)C(=O)N1 (single isomer, unassigned) [EXAMPLE 2 Isomer 2] | < 0.1 µM | 96.2% | 
C[C@@H](c1ccc(Br)cc1)N1CCC[C@@](CCO)(c2ccccc2)NC1=O (single isomer, unassigned) [EXAMPLE 3 Isomer 1] | < 0.1 µM |  | 85.8%
C[C@@H](c1ccc(Br)cc1)N1CCC[C@](CCO)(c2ccccc2)NC1=O (single isomer, unassigned) [EXAMPLE 3 Isomer 2] | < 0.1 µM | 97.6% | 
C=C(C)C[C@]1(c2ccccc2)CCCN([C@@H](C)c2ccc(Br)cc2)C(=O)O1 (single isomer, unassigned) [EXAMPLE 14 Isomer 1] | < 0.1 µM | 97.4% | 
C=C(C)C[C@@]1(c2ccccc2)CCCN([C@@H](C)c2ccc(Br)cc2)C(=O)O1 (single isomer, unassigned) [EXAMPLE 14 Isomer 2] | < 0.1 µM | 111% | 
C[C@@H](c1ccc(Br)cc1)N1CCC[C@](CC(C)(C)O)(c2ccccc2)OC1=O (single isomer, unassigned) [EXAMPLE 15 Isomer 1] | < 0.1 µM | 86.2% | 
C[C@@H](c1ccc(Br)cc1)N1CCC[C@@](CC(C)(C)O)(c2ccccc2)OC1=O (single isomer, unassigned) [EXAMPLE 15 Isomer 2] | > 0.1 µM | 31.7% | 
C[C@@H](c1ccc(O)cc1)N1CCCC(CC(C)(C)O)(c2ccccc2)OC1=O (single isomer, unassigned) [EXAMPLE 17 Isomer 1] | > 0.1 µM |  | 41.6%
C[C@@H](c1ccc(O)cc1)N1CCCC(CC(C)(C)O)(c2ccccc2)OC1=O (single isomer, unassigned) [EXAMPLE 17 Isomer 2] | < 0.1 µM |  | 68.5%
C[C@@H](c1ccc(Br)cc1)N1CCC[C@](CCCO)(c2ccccc2)NC1=O [EXAMPLE 1, (S)-1-((S)-1-(4-bromophenyl)ethyl)-4-(3-hydroxypropyl)-4-phenyl-1,3-diazepan-2-one] | < 0.1 µM | 95.6% | 
CC(O)C[C@]1(c2ccccc2)CCCN([C@@H](C)c2ccc(Br)cc2)C(=O)N1 (stereo partly drawn) [EXAMPLE 4, (4S)-1-((S)-1-(4-bromophenyl)ethyl)-4-(2-hydroxypropyl)-4-phenyl-1,3-diazepan-2-one] | < 0.1 µM | 95.8% | 
C[C@@H](c1ccc(Br)cc1)N1CCC[C@](CCC(N)=O)(c2ccccc2)NC1=O [EXAMPLE 5, 3-((S)-1-((S)-1-(4-bromophenyl)ethyl)-2-oxo-4-phenyl-1,3-diazepan-4-yl)propanamide] | < 0.1 µM | 93.7% | 
COc1ccc(-c2ccc([C@H](C)N3CCC[C@](CCO)(c4ccccc4)NC3=O)cc2)cn1 [EXAMPLE 6, (S)-4-(2-hydroxyethyl)-1-((S)-1-(4-(6-methoxypyridin-3-yl)phenyl)ethyl)-4-phenyl-1,3-diazepan-2-one] | < 0.1 µM | 95.5% | 
C=C(C)C[C@]1(c2ccccc2)CCCN([C@@H](C)c2ccc(Br)cc2)C(=O)N1 [EXAMPLE 7, (S)-1-((S)-1-(4-bromophenyl)ethyl)-4-(2-methylallyl)-4-phenyl-1,3-diazepan-2-one] | < 0.1 µM | 93% | 
C[C@@H](c1ccc(Br)cc1)N1CCC[C@](CC(C)(C)O)(c2ccccc2)NC1=O [EXAMPLE 8, (S)-1-((S)-1-(4-bromophenyl)ethyl)-4-(2-hydroxy-2-methylpropyl)-4-phenyl-1,3-diazepan-2-one] | < 0.1 µM | 97.5% | 
C=C(C)C[C@]1(c2ccccc2)CCCN([C@@H](C)c2ccc(-c3ccn(C)c(=O)c3)cc2)C(=O)N1 [EXAMPLE 9, (S)-1-((S)-1-(4-(1-methyl-2-oxo-1,2-dihydropyridin-4-yl)phenyl)ethyl)-4-(2-methylallyl)-4-phenyl-1,3-diazepan-2-one] | < 0.1 µM | 95.2% | 
C=C(C)C[C@]1(c2ccccc2)CCCN([C@@H](C)c2ccc(-c3ccc(=O)n(C)c3)cc2)C(=O)N1 [EXAMPLE 10, (S)-1-((S)-1-(4-(1-methyl-6-oxo-1,6-dihydropyridin-3-yl)phenyl)ethyl)-4-(2-methylallyl)-4-phenyl-1,3-diazepan-2-one] | < 0.1 µM | 97.1% | 
C[C@@H](c1ccc(-c2ccn(C)c(=O)c2)cc1)N1CCC[C@](CC(C)(C)O)(c2ccccc2)NC1=O [EXAMPLE 11, (S)-4-(2-hydroxy-2-methylpropyl)-1-((S)-1-(4-(1-methyl-2-oxo-1,2-dihydropyridin-4-yl)phenyl)ethyl)-4-phenyl-1,3-diazepan-2-one] | < 0.1 µM | 98.3% | 
C[C@@H](c1ccc(-c2ccc(=O)n(C)c2)cc1)N1CCC[C@](CC(C)(C)O)(c2ccccc2)NC1=O [EXAMPLE 12, (S)-4-(2-hydroxy-2-methylpropyl)-1-((S)-1-(4-(1-methyl-6-oxo-1,6-dihydropyridin-3-yl)phenyl)ethyl)-4-phenyl-1,3-diazepan-2-one] | < 0.1 µM | 92.9% | 
C[C@@H](c1ccc(-c2ccn(C3CC3)c(=O)c2)cc1)N1CCC[C@](CC(C)(C)O)(c2ccccc2)NC1=O [EXAMPLE 13, (S)-1-((S)-1-(4-(1-cyclopropyl-2-oxo-1,2-dihydropyridin-4-yl)phenyl)ethyl)-4-(2-hydroxy-2-methylpropyl)-4-phenyl-1,3-diazepan-2-one] | < 0.1 µM | 94.2% | 
C[C@@H](c1ccc(-c2ccn(C3CC3)c(=O)c2)cc1)N1CCC[C@](CC(C)(C)O)(c2ccccc2)OC1=O [EXAMPLE 18, (S)-3-((S)-1-(4-(1-cyclopropyl-2-oxo-1,2-dihydropyridin-4-yl)phenyl)ethyl)-7-(2-hydroxy-2-methylpropyl)-7-phenyl-1,3-oxazepan-2-one] | < 0.1 µM | 86.8% | 
C[C@@H](c1ccc(-c2ccn(C)c(=O)c2)cc1)N1CCC[C@](CC(C)(C)O)(c2ccccc2)OC1=O [EXAMPLE 19, (S)-7-(2-hydroxy-2-methylpropyl)-3-((S)-1-(4-(1-methyl-2-oxo-1,2-dihydropyridin-4-yl)phenyl)ethyl)-7-phenyl-1,3-oxazepan-2-one] | < 0.1 µM | 80.3% | 
C[C@@H](c1ccc(-c2ccc(=O)n(C3CC3)c2)cc1)N1CCC[C@](CC(C)(C)O)(c2ccccc2)NC1=O [EXAMPLE 20, (S)-1-((S)-1-(4-(1-cyclopropyl-6-oxo-1,6-dihydropyridin-3-yl)phenyl)ethyl)-4-(2-hydroxy-2-methylpropyl)-4-phenyl-1,3-diazepan-2-one] | < 0.1 µM | 97.4% | 
